These are literature values, as cited in patent US20210038510A1, “FORMULATIONS OF KINASE INHIBITORS AND PROSTANOIDS” (PULMOKINE, INC., priority 2018, published 2021).

Data set [1] deals with rat monocrotaline model of PAH.
In data set [2] the test system is patients with advanced PAH.
The test system of data set [3] is PDGFRβ isoform versus PDGFRα isoform.

As to `Cc1ccc(NC(=O)c2ccc(CN3CCN(C)CC3)cc2)cc1Nc1nccc(-c2cccnc2)n1` [Imatinib, imatinib], in data set [1], the “Right ventricular systolic pressure (RVSP)” value is on record as “decreases” and the Survival result is reported as “improves survival”. Also, in data set [2], the Cardiopulmonary hemodynamics entry was “improves cardiopulmonary hemodynamics”. In addition, in data set [3], the “Potency against the PDGFRβ isoform compared with the PDGFRα isoform” value is listed as “less potent”.
